Reference: PMC6472337, “L amino acid transporter structure and molecular bases for the asymmetry of substrate interaction” (Nature Communications, 2019)
Values joined by “and” are separate entries in the source; they are usually repeats but may differ in a detail not shown here. Equal entries are not always repeated. Where two headings read alike, the source gives them in different places.

Columns and labels:
[1] = target: T1, hAsc-1 Y280F mutant (Homo sapiens, UniProt Q9NS82, Y280F); assay: [3H]L-alanine uptake in HeLa cells, hAsc-1 Y280F; type: cell-based; details: WT = 100, n=1-3 and mean
T1 construct: expressed in transfected cells; host or cells: HeLa
T1 sequence (Q9NS82 1-523 Y280F): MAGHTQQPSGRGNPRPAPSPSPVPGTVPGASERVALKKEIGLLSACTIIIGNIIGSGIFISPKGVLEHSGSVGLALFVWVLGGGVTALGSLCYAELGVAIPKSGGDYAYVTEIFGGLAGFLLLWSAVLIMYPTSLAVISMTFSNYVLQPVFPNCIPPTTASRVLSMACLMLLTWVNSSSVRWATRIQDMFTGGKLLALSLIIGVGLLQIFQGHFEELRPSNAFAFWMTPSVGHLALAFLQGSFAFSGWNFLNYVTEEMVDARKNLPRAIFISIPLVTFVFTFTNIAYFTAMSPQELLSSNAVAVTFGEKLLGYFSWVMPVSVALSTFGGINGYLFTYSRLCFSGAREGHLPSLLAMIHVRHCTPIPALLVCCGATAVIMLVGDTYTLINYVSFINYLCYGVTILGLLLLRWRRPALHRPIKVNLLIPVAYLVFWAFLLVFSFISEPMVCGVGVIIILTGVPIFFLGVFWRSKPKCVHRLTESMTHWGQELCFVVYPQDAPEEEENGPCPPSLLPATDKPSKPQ
T1 sequence (P08195 1-529 partner): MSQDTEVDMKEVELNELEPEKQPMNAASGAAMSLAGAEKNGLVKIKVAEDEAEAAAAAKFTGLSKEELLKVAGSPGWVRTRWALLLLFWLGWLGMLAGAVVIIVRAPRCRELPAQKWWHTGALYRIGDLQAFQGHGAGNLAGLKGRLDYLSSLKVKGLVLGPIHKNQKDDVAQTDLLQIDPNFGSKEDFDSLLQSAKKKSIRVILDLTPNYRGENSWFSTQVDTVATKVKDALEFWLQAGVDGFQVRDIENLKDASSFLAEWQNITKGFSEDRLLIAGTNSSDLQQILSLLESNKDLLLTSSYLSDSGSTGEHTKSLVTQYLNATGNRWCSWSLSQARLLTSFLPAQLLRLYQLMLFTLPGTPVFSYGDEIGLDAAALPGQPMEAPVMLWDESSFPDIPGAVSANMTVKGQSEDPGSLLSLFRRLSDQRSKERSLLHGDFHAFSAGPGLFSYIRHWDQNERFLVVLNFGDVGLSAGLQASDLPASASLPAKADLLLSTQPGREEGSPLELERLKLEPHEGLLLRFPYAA
From the text: All mutations were verified by sequencing.

[2] = target: wild-type BasC; assay: Thermostability-based L-alanine binding assay (GFP-fused protein, SEC); parameters: species or system Carnobacterium sp AT7; details: for Kd Wild-type binding curve, normalized signal: n=1-3
Protocol: GFP-fused BasC proteins purified in DM were incubated for 10 min at 4–60 °C (Y236F and K154A mutants) or 4–70 °C (wild-type). In total, 200 µl of 2 mg ml^−1 protein was used for each temperature point. Protein was then centrifuged at 186,000 × g for 30 min. […] Fractions (200 µl) were collected and measured for GFP fluorescence. The peak heights were normalized to those of samples incubated at 4 °C and were fit to the Hill equation using the GraphPad Prism 4 program (GraphPad Software Inc., San Diego, CA). Melting temperatures (Tm) were determined by fitting the curves to a sigmoidal dose-response equation, as previously described.
BasC-GFP proteins were then incubated at the calculated Tm for 10 min and centrifuged at 186,000 × g for 30 min. […] Binding affinities were determined by fitting the curves to a sigmoidal dose-response equation.

C[C@H](N)C(=O)O [L-alanine]
transport of 10 µM [3H]L-alanine normalized to wild-type [1]: 133.65 and 128.34 and 128.02 and 123.34 | Kd ([2]; WT BasC, incubated at Tm, L-alanine 0–200 mM, read-out: KD (apparent, thermostability-based)): 34.5 ± 2.1 mM | Kd Wild-type binding curve, normalized signal ([2]; [L-Alanine] 0.36 mM): 4.340 and 4.304 and 4.417 | Kd Wild-type binding curve, normalized signal ([2]; [L-Alanine] 1.50 mM): 6.609 and 6.614 and 8.554 | Kd Wild-type binding curve, normalized signal ([2]; [L-Alanine] 3.13 mM): 10.226 and 10.310 and 9.554 | Kd Wild-type binding curve, normalized signal ([2]; [L-Alanine] 6.25 mM): 16.111 and 16.814 and 19.554 | Kd Wild-type binding curve, normalized signal ([2]; [L-Alanine] 12.50 mM): 30.546 and 30.584 and 35.221 | Kd Wild-type binding curve, normalized signal ([2]; [L-Alanine] 25 mM): 47.282 and 48.296 and 50.554 | Kd Wild-type binding curve, normalized signal ([2]; [L-Alanine] 50 mM): 70.152 and 71.030 and 72.225 | Kd Wild-type binding curve, normalized signal ([2]; [L-Alanine] 100 mM): 82.376 and 81.876 and 86.554 | Kd Wild-type binding curve, normalized signal ([2]; [L-Alanine] 150 mM): 97.076 and 84.776 and 95.225 | Kd Wild-type binding curve, normalized signal ([2]; [L-Alanine] 200 mM): 100.000 | Kd ([2]; individual experiments n=1, n=2, n=3, read-out: Apparent Kd Wild type): 35.9 mM and 35.4 mM and 32.2 mM | Kd ([2]; mean of n=3, read-out: Apparent Kd Wild type, mean): 34.5 mM
